From patent US20250144067A1, “PERSONALIZED STARVATION THERAPY FOR CANCER” (Faeth Therapeutics, Inc., priority 2021, published 2025)
Where a name gives a salt, the structure may show the parent alone. Read-outs that look alike come from different tables or passages of the source.

Experiments:
[1] = system: NCI-H292 lung cancer cells; assay: FDA drug screening, complete media vs cholesterol-free media without statin (TABLE 1); type: cell-based, human
[2] = system: NCI-H292 lung cancer cells; assay: FDA drug screening, complete media vs cholesterol-free media with simvastatin (TABLE 2); type: cell-based, human
[3] = Complete minus Cholesterol-free, […]
[4] = NCI-H292 cells, cholesterol-free media without statin
[5] = NCI-H292 cells, drug in cholesterol-free media with simvastatin 0.04 μM
[6] = NCI-H292 cells, drug in complete media
[7] = complete media vs cholesterol-free media + simvastatin (0.04 μM), […]
[8] = Complete minus Cholesterol-free, greater than 0 enhanced anti-cancer activity, about 0 neutral, below 0 antagonists
[9] = NCI-H292 cells in complete media
[10] = complete media vs cholesterol-free media + simvastatin (0.04 μM), >0 enhanced anti-cancer activity, about 0 neutral, <0 antagonist
[11] = complete vs cholesterol-free media, greater than 0 enhanced anti-cancer activity, about 0 neutral, below 0 antagonists
[12] = NCI-H292 cells, FDA drug library screen, cholesterol-free media without statin
[13] = NCI-H292 cells, FDA drug library screen, complete media
[14] = NCI-H292 cells in cholesterol-free media without statin
[15] = NCI-H292 cells, cholesterol-free media with simvastatin 0.04 μM, cell growth value in FDA drug screen
[16] = NCI-H292 cells, complete media, cell growth value in FDA drug screen
[17] = complete media minus cholesterol-free media + simvastatin, >0 enhanced anti-cancer activity, about 0 neutral, <0 antagonist
[18] = complete media minus cholesterol-free media + simvastatin, […]
[19] = Complete minus Cholesterol-free, >0 enhanced anti-cancer activity, about 0 neutral, <0 antagonist
[20] = NCI-H292 cells, cholesterol-free media without statin, FDA drug library screen
[21] = NCI-H292 cells, complete media, FDA drug library screen
[22] = NCI-H292 cells, FDA library drug in complete media
[23] = NCI-H292 cells, FDA drug library screen, cholesterol-free media with simvastatin 0.04 μM
[24] = NCI-H292 cells, cholesterol-free media with simvastatin 0.04 μM, FDA drug library screen (TABLE 2)
[25] = NCI-H292 cells, complete media, FDA drug library screen (TABLE 2)
[26] = complete media minus cholesterol-free media + simvastatin (0.04 μM), […]
[27] = complete media minus cholesterol-free media + simvastatin (0.04 μM), >0 enhanced anti-cancer activity, about 0 neutral, <0 antagonist

Molecule: Nc1ccc(C(=O)NCC(=O)[O-])cc1.[Na+] [Aminohippurate (sodium)]
- Difference [1, 3]: −0.25
- Cholesterol-free [1, 4]: 1.249
- Complete ([1]; NCI-H292 cells, complete media): 0.9961
- Cholesterol-free media + simvastatin (0.04 μM) [2, 5]: 1.368
- Complete Media [2, 6]: 1.199
- Difference [2, 7]: −0.17

Molecule: NS(=O)(=O)Cc1noc2ccccc12 [Zonisamide]
- Difference [1, 8]: −0.51
- Complete [1, 9]: 1.109
- Cholesterol-free media + simvastatin (0.04 μM) [2, 5]: 1.285
- Complete Media [2, 6]: 1.066
- Difference [2, 10]: −0.22

Molecule: Nc1ccc(S(=O)(=O)NC(=O)c2ccccc2)cc1 [Sulfabenzamide]
- Cholesterol-free [1, 4]: 1.412
- Complete ([1]; NCI-H292 cells, complete media): 1.023
- Difference [1, 11]: −0.39
- Cholesterol-free media + simvastatin (0.04 μM) [2, 5]: 1.231
- Complete Media [2, 6]: 1.041
- Difference [2, 10]: −0.19

Molecule: CN1CCC2=C(C1)c1ccccc1Cc1ccccc12 [Setiptiline]
- Difference ([1]; Complete minus Cholesterol-free, greater than 0 enhanced anti-cancer activity, about 0 neutral, below 0 antagonist): −0.08
- Cholesterol-free [1, 12]: 1.103
- Complete [1, 13]: 1.024
- Cholesterol-free media + simvastatin (0.04 μM) [2, 5]: 1.048
- Complete Media [2, 6]: 0.8546
- Difference [2, 10]: −0.19

Molecule: CC(=O)[C@H]1CC[C@H]2[C@@H]3C=CC4=CC(=O)CC[C@@]4(C)[C@@H]3CC[C@]12C [Dydrogesterone]
- Difference [1, 8]: −0.68
- Cholesterol-free [1, 14]: 1.745
- Complete [1, 9]: 1.064
- Cholesterol-free media + simvastatin (0.04 μM) [2, 15]: 1.183
- Complete Media [2, 16]: 1.295
- Difference [2, 17]: 0.11

Molecule: Heparin (sodium salt) (MW 15 kDa)
- Difference [1, 3]: −0.29
- Cholesterol-free [1, 4]: 1.451
- Complete ([1]; NCI-H292 cells, complete media): 1.156
- Complete Media [2, 13]: 1.339
- Difference [2, 18]: 0.23

Molecule: CCCCN1CCCC[C@H]1C(=O)Nc1c(C)cccc1C [Levobupivacaine (hydrochloride)]
- Cholesterol-free [1, 4]: 1.298
- Complete ([1]; NCI-H292 cells, complete media): 0.9683
- Difference [1, 11]: −0.33
- Cholesterol-free media + simvastatin (0.04 μM) [2, 15]: 0.871
- Complete Media [2, 16]: 0.9154
- Difference [2, 17]: 0.04

Molecule: C[C@@H]1CC[C@H]2[C@@H](C)C(=O)O[C@@H]3O[C@@]4(C)CC[C@@H]1[C@]32OO4 [Artemisinin]
- Difference [1, 19]: −0.06
- Cholesterol-free [1, 20]: 0.8489
- Complete [1, 21]: 0.7892
- Complete Media [2, 22]: 0.8603
- Difference [2, 10]: −0.76

Molecule: CC1CC(OC(=O)C(O)c2ccccc2)CC(C)(C)C1 (stereo not drawn) [Cyclandelate]
- Difference [1, 19]: −0.23
- Cholesterol-free [1, 4]: 1.162
- Complete ([1]; NCI-H292 cells, complete media): 0.935
- Cholesterol-free media + simvastatin (0.04 μM) [2, 5]: 1.188
- Complete Media [2, 6]: 0.9668
- Difference [2, 10]: −0.22

Molecule: OCc1cc(C(O)CNCCCCCCOCCCCc2ccccc2)ccc1O (stereo not drawn) [Salmeterol]
- Difference [1, 19]: −0.01
- Cholesterol-free [1, 20]: 0.865
- Complete [1, 21]: 0.8548
- Cholesterol-free media + simvastatin (0.04 μM) [2, 23]: 0.6428
- Complete Media [2, 13]: 0.8345
- Difference [2, 17]: 0.19

Molecule: CCN1CCC[C@H]1CNC(=O)c1cc(S(N)(=O)=O)ccc1OC [Levosulpiride]
- Difference [1, 8]: −0.54
- Cholesterol-free [1, 14]: 1.287
- Complete [1, 9]: 0.7498
- Cholesterol-free media + simvastatin (0.04 μM) [2, 23]: 0.9156
- Complete Media [2, 13]: 1.092
- Difference [2, 17]: 0.18

Molecule: CC(C)(Oc1ccc(C(=O)c2ccc(Cl)cc2)cc1)C(=O)O [Fenofibric acid]
- Cholesterol-free [1, 4]: 1.435
- Complete ([1]; NCI-H292 cells, complete media): 1.058
- Difference [1, 11]: −0.38
- Cholesterol-free media + simvastatin (0.04 μM) [2, 15]: 0.9473
- Complete Media [2, 16]: 1.061
- Difference [2, 17]: 0.11

Molecule: Lumateperone (tosylate)
- Difference [1, 3]: −0.84
- Cholesterol-free [1, 14]: 1.615
- Cholesterol-free media + simvastatin (0.04 μM) [2, 24]: 1.37
- Complete Media [2, 25]: 1.357
- Difference [2, 26]: −0.01

Molecule: Tegaserod (maleate)
- Difference [1, 3]: −0.26
- Cholesterol-free [1, 4]: 0.9824
- Complete ([1]; NCI-H292 cells, complete media): 0.7272
- Cholesterol-free media + simvastatin (0.04 μM) ([2]; NCI-H292 cells, cholesterol-free media with simvastatin 0.04 μM, […]): 0.7216
- Complete Media ([2]; NCI-H292 cells, complete media, […]): 0.7473
- Difference [2, 18]: 0.03

Molecule: Oxaliplatin
- Cholesterol-free [1, 4]: 1.359
- Complete ([1]; NCI-H292 cells, complete media): 0.9211
- Difference ([1]; complete vs cholesterol-free media, […]): −0.44
- Cholesterol-free media + simvastatin (0.04 μM) [2, 23]: 0.8725
- Difference [2, 18]: 0.17

Molecule: Nc1ccc(/N=N/c2ccccc2)c(N)n1 [Phenazopyridine (hydrochloride)]
- Difference [1, 19]: −0.06
- Cholesterol-free [1, 20]: 1.194
- Complete [1, 21]: 1.131
- Cholesterol-free media + simvastatin (0.04 μM) [2, 23]: 1.284
- Complete Media [2, 13]: 1.801
- Difference [2, 17]: 0.52

Molecule: Brimonidine (tartrate)
- Cholesterol-free [1]: 1.093
- Complete [1]: 0.9545
- Difference [1]: −0.14
- Cholesterol-free media + simvastatin (0.04 μM) [2]: 1.704
- Complete Media [2]: 1.309
- Difference [2]: −0.39

Molecule: CNCCC=C1c2ccccc2CCc2ccccc21 [Nortriptyline (hydrochloride)]
- Cholesterol-free [1, 4]: 1.336
- Complete ([1]; NCI-H292 cells, complete media): 1.01
- Difference [1, 11]: −0.33
- Cholesterol-free media + simvastatin (0.04 μM) [2, 5]: 1.16
- Complete Media [2, 6]: 0.9078
- Difference [2, 10]: −0.25

Molecule: NS(=O)(=O)c1cc(C(=O)O)c(NCc2ccco2)cc1Cl [Furosemide]
- Cholesterol-free media + simvastatin (0.04 μM) [2, 5]: 1.11
- Complete Media [2, 6]: 0.894
- Difference [2, 10]: −0.22

Molecule: CC#CC(=O)N1CCC[C@H]1c1nc(-c2ccc(C(=O)Nc3ccccn3)cc2)c2c(N)nccn12 [Acalabrutinib]
- Cholesterol-free [1, 20]: 0.7449
- Complete [1, 21]: 0.989
- Difference ([1]; complete vs cholesterol-free media, >0 enhanced anti-cancer activity, about 0 neutral, <0 antagonist): 0.24
- Cholesterol-free media + simvastatin (0.04 μM) [2, 23]: 1.302
- Complete Media [2, 13]: 1.618
- Difference [2, 17]: 0.32

Molecule: Hyaluronidase
- Difference [1, 3]: −0.05
- Cholesterol-free [1, 20]: 0.9036
- Complete [1, 21]: 0.8508
- Cholesterol-free media + simvastatin (0.04 μM) ([2]; NCI-H292 cells, FDA library drug in cholesterol-free media with simvastatin 0.04 μM): 1.288
- Complete Media [2, 22]: 1.022
- Difference [2, 7]: −0.27

Molecule: γ-Oryzanol
- Complete Media [2, 13]: 1.39
- Difference [2, 18]: 0.24

Molecule: CCN(CC)C(=O)C1(c2ccccc2)CC1CN.Cl (stereo not drawn) [Milnacipran ((1S-cis)hydrochloride)]
- Difference [1, 3]: −0.18
- Cholesterol-free [1, 12]: 1.07
- Complete [1, 13]: 0.894

Molecule: NS(=O)(=O)c1cc(C(=O)O)c(NCc2ccco2)cc1Cl [Furosemide (sodium)]
- Cholesterol-free media + simvastatin (0.04 μM) [2, 24]: 1.074
- Complete Media [2, 25]: 1.02
- Difference [2, 27]: −0.05

Molecule: CCN(CC)C(=O)C1(c2ccccc2)CC1CN.Cl (stereo not drawn) [Milnacipran ((1S-cis) hydrochloride)]
- Cholesterol-free media + simvastatin (0.04 μM) [2, 23]: 0.9487
- Complete Media [2, 13]: 0.8731
- Difference [2, 7]: −0.08

Molecule: CC(C)Cc1ccc([C@@H](C)C(=O)O)cc1 [(R)-(—)-Ibuprofen]
- Difference [1, 8]: −0.96
- Cholesterol-free [1, 14]: 1.742
- Complete [1, 9]: 0.7774

Molecule: CC(C)Cc1ccc([C@@H](C)C(=O)O)cc1 [(R)-(−)-Ibuprofen]
- Difference [2, 27]: 0.01

Molecule: Escin
- Difference [1, 3]: −0.22
- Cholesterol-free [1, 4]: 1.276

Molecule: Dihydroergotoxine (mesylate)
- Cholesterol-free media + simvastatin (0.04 μM) [2, 24]: 0.9089
- Complete Media [2, 25]: 0.9065
- Difference [2, 26]: 0.00
